These results are taken from paper PMC11118832 (Biomolecules, 2024).

Square brackets hold non-standard residues; d marks the D form. Peptide text beside a SMILES is read from it. Phe(4-NH2) = Nc1ccc(C[C@H](N)C(=O)O)cc1; 1Nal = N[C@@H](Cc1cccc2ccccc12)C(=O)O; hLeu = CC(C)CC[C@H](N)C(=O)O; Nle = CCCC[C@H](N)C(=O)O; Orn = NCCC[C@H](N)C(=O)O

One assay addresses T1, PD-1/PD-L1 (Homo sapiens, UniProt Q15116).
T1 construct: this kit uses ectodomains of PD-1 and PD-L1 that are expressed with orthogonal fusion tags (Tag-1 and Tag-2); purchased CisBio (currently Perkin-Elmer, Bedford, MA)
As to the kind of experiment: In vitro time-resolved FRET PD-1/PD-L1 binding assay (CisBio kit). The following applies: CisBio PD-1/PD-L1 binding kit, TR FRET, 96-well, 4-fold serial dilutions in triplicate, freshly dissolved peptides; read-out: IC50, inhibition of PD-1/PD-L1 binding (TR FRET assay). How it is done: Commercial PD-1/PD-L1 binding assay kit (CisBio, currently Perkin-Elmer, Bedford, MA) for time resolve fluorescent energy transfer (FRET) was used to assess peptides binding to PD-1. The assay for peptide screening was performed in a 96-well format (normal pressure), starting with 4-fold serial dilutions of each peptide in triplicate. No-peptide triplicate wells were used to assess fluorescent energy transfer in the absence of inhibition, and no-PD-1/PD-L1 triplicate wells were used to assess the background fluorescent energy transfer in the absence of PD-1/PD-L1 complexes. More detailed concentration dependences were obtained for selected peptides. Only freshly dissolved peptides were used in the assay. Various QSAR (quantitative structure activity relationship) hypotheses were tested by synthesizing batches of 10–12 peptides. In total, over one hundred candidates in ten iterations were screened for their ability to inhibit in vitro PD-1/PD-L1 binding using the commercial PD-1/PD-L1 binding assay kit (CisBio, currently Perkin-Elmer). Briefly, this kit uses ectodomains of PD-1 and PD-L1 that are expressed with orthogonal fusion tags (Tag-1 and Tag-2). It also includes two antibodies to selectively interact with these tags. The antibody against one tag is labeled with fluorescent moiety, which serves as a donor, while the other antibody is labeled with fluorescent moiety, which serves as an acceptor in fluorescent resonance energy transfer (FRET). When the complex is formed and probed with both anti-Tag-1 and anti-Tag-2 antibodies, donor and acceptor are sufficiently close, and FRET can be detected in a time-resolved (TR) manner. Inhibitors of PD-1/PD-L1 interactions prevent complex formation, leading to a decrease in TR FRET in a concentration-dependent manner, as shown in Figure 2 for four representative peptide inhibitors. Initial fourfold dilutions are exemplified by data for peptides B5.11 and B5.6 (panels A and B); examples of the more detailed follow-up concentration dependences are shown for peptides B2.4 and B2.22 (panels C and D). The potency of the inhibitors is then characterized by IC50, a concentration that inhibits TR FRET by 50%, allowing for a facile comparison of different inhibitors (Figure 2E).
A general note: TR-FRET usually uses a lanthanide donor and a delayed reading to cut background.
Regarding `CCCC[C@H](NC(C)=O)C(=O)N[C@H](C(=O)N[C@@H](CC(C)C)C(=O)N[C@H](C(=O)N[C@H](C(=O)N[C@H](C(=O)NCC(=O)N[C@@H](C)C(=O)N[C@@H](C)C(=O)N[C@@H](Cc1c[nH]c2ccccc12)C(=O)N[C@@H](CC(=O)O)C(=O)N[C@@H](Cc1ccc(O)cc1)C(=O)N[C@@H](CCCCN)C(=O)N[C@@H](Cc1ccc(O)cc1)C(N)=O)C(C)C)[C@@H](C)CC)C(C)C)C(C)C` [B5.6] (Ac-[Nle]VLVIVGAAWDYKY-NH2), the IC50 worked out at 0.2 µM.

Staying with this assay, now noted: CisBio PD-1/PD-L1 binding kit, TR FRET, 96-well, serial dilutions in triplicate; NI = no inhibition at maximum concentration tested (* 5 μM, ** 50 μM); read-out: EC50 (Supplementary Table S1; inhibition of PD-1/PD-L1 binding by in vitro TR-FRET assay).
Usually EC50 stands for the concentration needed to bring the measured effect to its halfway point. For `CCCC[C@H](NC(=O)[C@@H](NC(=O)[C@H](CCCNC(=N)N)NC(C)=O)C(C)C)C(=O)N[C@@H](CCCNC(=N)N)C(=O)N[C@H](C(=O)N[C@@H](CCC(=O)O)C(=O)NCC(=O)N[C@@H](C)C(=O)N[C@@H](C)C(=O)N[C@@H](Cc1c[nH]c2ccccc12)C(=O)N[C@@H](CC(=O)O)C(=O)N[C@@H](Cc1ccc(O)cc1)C(=O)N[C@@H](CCCCN)C(=O)N[C@@H](Cc1ccc(O)cc1)C(N)=O)[C@@H](C)CC` [B4.6] (Ac-RV[Nle]RIEGAAWDYKY-NH2), the EC50 is over 5 µM. The same measure, in the same setting: the figure for `CCCC[C@H](NC(=O)[C@@H](NC(=O)[C@@H](N)CCCNC(=N)N)C(C)C)C(=O)N[C@H](C(=O)N[C@H](C(=O)N[C@H](C(=O)NCC(=O)N[C@@H](C)C(=O)N[C@@H](C)C(=O)N[C@@H](Cc1c[nH]c2ccccc12)C(=O)N[C@@H](CC(=O)O)C(=O)N[C@@H](Cc1ccc(O)cc1)C(=O)N[C@@H](CCCCN)C(=O)N[C@@H](Cc1ccc(O)cc1)C(=O)O)C(C)C)[C@@H](C)CC)C(C)C` [B4.7] (H-RV[Nle]VIVGAAWDYKY-OH; N-terminus and C-terminus assumed) is over 5 µM.

With `CCCC[C@H](NC(=O)[C@@H](NC(=O)[C@H](CCCC)NC(=O)[C@@H](NC(=O)[C@@H](N)CCCNC(=N)N)C(C)C)C(C)C)C(=O)N[C@H](C(=O)NCC(=O)N[C@@H](C)C(=O)N[C@@H](C)C(=O)N[C@@H](Cc1c[nH]c2ccccc12)C(=O)N[C@@H](CC(=O)O)C(=O)N[C@@H](Cc1ccc(O)cc1)C(=O)N[C@@H](CCCCN)C(=O)N[C@@H](Cc1ccc(O)cc1)C(=O)O)C(C)C` [B4.8] (H-RV[Nle]V[Nle]VGAAWDYKY-OH; N-terminus and C-terminus assumed), the concentration giving a half-maximal response (EC50) is over 5 µM. Still for that read-out and setting: the result for `CCCC[C@H](NC(=O)[C@@H](NC(=O)[C@H](CCCNC(=N)N)NC(C)=O)C(C)C)C(=O)N[C@H](C(=O)N[C@H](C(=O)N[C@H](C(=O)NCC(=O)N[C@@H](C)C(=O)N[C@@H](CCCN)C(=O)N[C@@H](Cc1c[nH]c2ccccc12)C(=O)N[C@@H](CC(=O)O)C(=O)N[C@@H](Cc1ccc(O)cc1)C(=O)N[C@@H](CCCCN)C(=O)N[C@@H](Cc1ccc(O)cc1)C(N)=O)C(C)C)[C@@H](C)CC)C(C)C` [B4.9] (Ac-RV[Nle]VIVGA[Orn]WDYKY-NH2) reads 5 µM. Regarding `CCCC[C@H](NC(=O)[C@@H](NC(=O)[C@@H](N)CCCNC(=N)N)C(C)C)C(=O)N[C@H](C(=O)N[C@H](C(=O)N[C@H](C(=O)NCC(=O)N[C@@H](C)C(=O)N[C@@H](C)C(=O)N[C@@H](Cc1c[nH]c2ccccc12)C(=O)N[C@@H](CC(=O)O)C(=O)N[C@@H](Cc1ccc(N)cc1)C(=O)N[C@@H](CCCCN)C(=O)N[C@@H](Cc1ccc(O)cc1)C(=O)O)C(C)C)[C@@H](C)CC)C(C)C` [B4.10] (H-RV[Nle]VIVGAAWD[Phe(4-NH2)]KY-OH; N-terminus and C-terminus assumed), the concentration for a half-maximal effect (EC50) was over 5 µM. On to `CCCC[C@H](NC(C)=O)C(=O)N[C@H](C(=O)N[C@@H](Cc1c[nH]c2ccccc12)C(=O)N[C@H](C(=O)NCC(=O)N[C@@H](C)C(=O)N[C@@H](C)C(=O)N[C@@H](Cc1c[nH]c2ccccc12)C(=O)N[C@@H](CC(=O)O)C(=O)N[C@@H](Cc1ccc(O)cc1)C(=O)N[C@@H](CCCCN)C(=O)N[C@@H](Cc1ccc(O)cc1)C(N)=O)C(C)C)C(C)C` [B4.11] (Ac-[Nle]VWVGAAWDYKY-NH2), for which the concentration for a half-maximal effect (EC50) is over 5 µM. The same measure, in the same setting: the result for `CCCC[C@H](NC(C)=O)C(=O)N[C@H](C(=O)N[C@@H](Cc1c[nH]c2ccccc12)C(=O)N[C@H](C(=O)NCC(=O)N[C@@H](C)C(=O)N[C@@H](C)C(=O)N[C@@H](Cc1c[nH]c2ccccc12)C(=O)N[C@@H](CC(=O)O)C(=O)N[C@@H](CCCNC(=N)N)C(=O)N[C@@H](CCCCN)C(=O)N[C@@H](Cc1ccc(O)cc1)C(N)=O)C(C)C)C(C)C` [B4.12] (Ac-[Nle]VWVGAAWDRKY-NH2) reads over 5 µM.

Turning to `CCCC[C@H](N)C(=O)N[C@H](C(=O)N[C@@H](Cc1c[nH]c2ccccc12)C(=O)N[C@H](C(=O)NCC(=O)N[C@@H](C)C(=O)N[C@@H](C)C(=O)N[C@@H](Cc1c[nH]c2ccccc12)C(=O)N[C@@H](CC(=O)O)C(=O)N[C@@H](CCCNC(=N)N)C(=O)N[C@@H](CCCCN)C(=O)N[C@@H](Cc1ccc(O)cc1)C(=O)O)C(C)C)C(C)C` [B4.13] (H-[Nle]VWVGAAWDRKY-OH; N-terminus and C-terminus assumed), the EC50 was over 5 µM.

On to `CCCC[C@H](N)C(=O)N[C@H](C(=O)N[C@H](C(=O)N[C@H](C(=O)NCC(=O)N[C@@H](C)C(=O)N[C@@H](C)C(=O)N[C@@H](Cc1c[nH]c2ccccc12)C(=O)N[C@@H](CC(=O)O)C(=O)N[C@@H](Cc1ccc(O)cc1)C(=O)N[C@@H](CCCCN)C(=O)N[C@@H](CCCNC(=N)N)C(=O)O)C(C)C)[C@@H](C)CC)C(C)C` [B4.14] (H-[Nle]VIVGAAWDYKR-OH; N-terminus and C-terminus assumed), for which the EC50 was over 5 µM. On to `CCCC[C@H](N)C(=O)N[C@H](C(=O)N[C@@H](Cc1c[nH]c2ccccc12)C(=O)N[C@H](C(=O)NCC(=O)N[C@@H](C)C(=O)N[C@@H](C)C(=O)N[C@@H](Cc1c[nH]c2ccccc12)C(=O)N[C@@H](CC(=O)O)C(=O)N[C@@H](Cc1ccc(O)cc1)C(=O)N[C@@H](CCCCN)C(=O)N[C@@H](Cc1ccc(O)cc1)C(=O)O)C(C)C)C(C)C` [B4.15] (H-[Nle]VWVGAAWDYKY-OH; N-terminus and C-terminus assumed), for which the 50% effective concentration (EC50) was over 5 µM.

Turning to `CC[C@H](C)[C@H](NC(=O)[C@H](CCC(C)C)NC(=O)[C@H](CC(=O)O)NC(C)=O)C(=O)N[C@H](C(=O)NCC(=O)N[C@@H](C)C(=O)N[C@@H](C)C(=O)N[C@@H](Cc1c[nH]c2ccccc12)C(=O)N[C@@H](CC(=O)O)C(=O)N[C@@H](Cc1ccc(O)cc1)C(=O)N[C@@H](CCCCN)C(=O)N[C@@H](Cc1ccc(O)cc1)C(N)=O)C(C)C` [B5.3] (Ac-D[hLeu]IVGAAWDYKY-NH2), the concentration giving a half-maximal response (EC50) was over 5 µM.

Take `CCCC[C@H](NC(C)=O)C(=O)N[C@H](C(=O)N[C@@H](CC(=O)O)C(=O)N[C@H](C(=O)N[C@H](C(=O)N[C@H](C(=O)NCC(=O)N[C@@H](C)C(=O)N[C@@H](C)C(=O)N[C@@H](Cc1c[nH]c2ccccc12)C(=O)N[C@@H](CC(=O)O)C(=O)N[C@@H](Cc1ccc(O)cc1)C(=O)N[C@@H](CCCCN)C(=O)N[C@@H](Cc1ccc(O)cc1)C(N)=O)C(C)C)[C@@H](C)CC)C(C)C)C(C)C` [B5.5] (Ac-[Nle]VDVIVGAAWDYKY-NH2): the concentration giving a half-maximal response (EC50) is over 5 µM. For the compound `CCCC[C@H](NC(C)=O)C(=O)N[C@H](C(=O)N[C@@H](CC(C)C)C(=O)N[C@H](C(=O)N[C@H](C(=O)N[C@H](C(=O)NCC(=O)N[C@@H](C)C(=O)N[C@@H](C)C(=O)N[C@@H](Cc1c[nH]c2ccccc12)C(=O)N[C@@H](CC(=O)O)C(=O)N[C@@H](Cc1ccc(O)cc1)C(=O)N[C@@H](CCCCN)C(=O)N[C@@H](Cc1ccc(O)cc1)C(N)=O)C(C)C)[C@@H](C)CC)C(C)C)C(C)C` [B5.6] (Ac-[Nle]VLVIVGAAWDYKY-NH2), the 50% effective concentration (EC50) came out at 0.2 µM. On the same count and under the same terms, the result for `CCCC[C@H](NC(=O)[C@H](CC(=O)O)NC(C)=O)C(=O)N[C@H](C(=O)N[C@H](C(=O)NCC(=O)N[C@@H](C)C(=O)N[C@@H](C)C(=O)N[C@@H](Cc1c[nH]c2ccccc12)C(=O)N[C@@H](CC(=O)O)C(=O)N[C@@H](Cc1ccc(O)cc1)C(=O)N[C@@H](CCCCN)C(=O)N[C@@H](Cc1ccc(O)cc1)C(N)=O)C(C)C)[C@@H](C)CC` [B5.7] (Ac-D[Nle]IVGAAWDYKY-NH2) reads over 5 µM; that for `CCCC[C@H](NC(=O)[C@@H](NC(=O)[C@H](CC(=O)O)NC(C)=O)C(C)C)C(=O)N[C@H](C(=O)NCC(=O)N[C@@H](C)C(=O)N[C@@H](C)C(=O)N[C@@H](Cc1c[nH]c2ccccc12)C(=O)N[C@@H](CC(=O)O)C(=O)N[C@@H](Cc1ccc(O)cc1)C(=O)N[C@@H](CCCCN)C(=O)N[C@@H](Cc1ccc(O)cc1)C(N)=O)C(C)C` [B5.8] (Ac-DV[Nle]VGAAWDYKY-NH2), over 5 µM; that for `CC[C@H](C)[C@H](NC(=O)[C@@H](NC(=O)[C@H](CC(=O)O)NC(C)=O)C(C)C)C(=O)N[C@H](C(=O)NCC(=O)N[C@@H](C)C(=O)N[C@@H](C)C(=O)N[C@@H](Cc1cccc2ccccc12)C(=O)N[C@@H](CC(=O)O)C(=O)N[C@@H](Cc1ccc(O)cc1)C(=O)N[C@@H](CCCCN)C(=O)N[C@@H](Cc1ccc(O)cc1)C(N)=O)C(C)C` [B6.1] (Ac-DVIVGAA[1Nal]DYKY-NH2), over 5 µM.
